Earlier results on one molecule are cited in patent US8182834B2, “Ternary non-lamellar lipid compositions” (Camurus AB, priority 2004, dated 2012).

SMILES strings stand for the structures.

Consider `CCCCCCCC/C=C\CCCCCCCC(=O)OCC(O)CO` (centres unmarked) [glycerol monooleate], for which the equilibrium water solubility (room temperature) is ~10^−7 M. Under “water, 25 ° C.”, the Equilibrium solubility concentration is recorded as ~10^−7 M.
